One data set deals with CoV229E. As to the kind of experiment: Anti-Coronavirus 229E cytoprotection (CPE) assay, MRC-5 (Method 3). The data set is classed as cell-based, human Coronavirus 229E. Conditions: Human coronavirus 229E, MRC5, […], read-out: CoV229E - EC50 (μM).
Data set [1] concerns MCF7 wild-type cell lines. In words: MCF7 growth inhibition assay (Cell Titre Glo 2.0). It is filed as cell-based. To be noted: Homo sapiens, MCF7, 120 h, read-out: MCF-7 IC50 (μM). Here is the method:
The growth inhibition properties of inhibitors on MCF7 wild-type cell lines were evaluated using the Cell Titre Glo 2.0 cell viability reagent. The assay utilized 384-well black clear bottom plates with 20 μl of MCF7 wild-type cell suspension mixed with reference/test compounds and 20 μl of Cell Titre Glo 2.0 reagent. Cells were seeded at a density of 1000 cells/well in DMEM High Glucose culture media+10% Fetal Bovine Serum (FBS). Staurosporine and Camptothecin served as positive controls for confirming cytotoxicity at a concentration of 30 μM, and vehicle control of 1% DMSO was used to standardize conditions across all test points. The assay and culture media both contained 1% DMSO. Assays were conducted in duplicate for each concentration of the test compounds. The incubation period for the assay was set at 120 hours, after which growth inhibition was assessed. Using a multi-mode reader, the assay readout was based on luminescence measured in Relative Light Units (RLUs). The viability luminescence signal was monitored continually from the same wells over an extended period, allowing for detailed analysis of cell viability. Measurements were taken using an integration time ranging from 0.25 to 1 second across plates designated for various time points.
Cells were maintained and seeded in 384 […] plates, maintaining 1000 cells/well. Seeded plates were incubated at 37° C., 5% CO2 for 16-18 hours to ensure optimal cell adherence and growth. Post-incubation, reference, and test compounds were added carefully to the wells for further processing. Plates were incubated again at 37° C., 5% CO2 for 120 hours (5 days) to allow compound effects. This was followed by the addition of CTG reagent as per the kit's instruction protocol for 30 minutes and RLU data to be recorded. Post plate read data to be analyzed using GraphPad Prism for software IC50 value generation.
Next, the NCEs were tested for selective estrogen regulation modulation activity by using a growth inhibition assay. The assay is performed on MCF7 cells, which are derived from a hormone-dependent breast cancer that stops growing upon estrogen receptor inhibition. […] Staurosporine and Camptothecin served as positive controls for cytotoxicity and 1% DMSO as the vehicle control.

The nature of data set [2]: XTT cell viability assay, Huh-luc/neo-ET. It is filed as cell-based. To be noted: human, Huh-luc/neo-ET cells, with HCV replicon assay, not converted, read-out: CC50. Here is the method:
(§1) Twenty-four hours after seeding the cells, the cell culture supernatant was removed from each well and replaced with 175 μL fresh complete medium minus G418. Test compounds were evaluated at a high-test concentration of 10 μM and five serial half-logarithmic dilutions in three biological replicates. In three biological replicates, Sofosbuvir was evaluated in parallel at a high-test concentration of 1 μM and five serial half-logarithmic dilutions. Compounds were first serially diluted in DMSO to 400× of each final in-well concentration. An intermediate 8× solution was prepared in a complete medium and then added to the cells in a volume of 25 μL per well. A complete medium containing an equal percentage of DMSO (v/v) was added to vehicle-treated control cells. The final DMSO concentration was 0.25% (v/v) for all samples. The cells were incubated for an additional 72 hours at 37° C./5% CO2, then HCV replication was measured by luciferase activity and cell viability was assessed in parallel using an XTT colorimetric assay.
(§2) Huh-luc/neo-ET cell viability was measured at 72 hours after treatment using the tetrazolium dye XTT (2,3-bis(2-methoxy-4-nitro-5-sulfophenyI)-5[(phenylamino)carbonyl]-2H-tetrazolium hydroxide). Mitochondrial enzymes of metabolically active cells metabolize XTT-tetrazolium to a soluble formazan product. XTT solution was prepared fresh at 1 mg/mL in DMEM. Phenazine methosulfate (PMS) solution was prepared at 0.15 mg/mL in PBS and stored in the dark at −20° C. An XTT/PMS stock was prepared immediately before use by adding 40 μL of PMS per ml of XTT solution. Fifty microliters (50 μL) XTT/PMS were added per well, and the cells were incubated for 4 hours at 37° C. The cell culture plates were then sealed with adhesive plate sealers and shaken gently or inverted several times to mix the soluble formazan product. The formazan product was measured spectrophotometrically by absorbance at 450/650 nm on a Vmax plate reader (Molecular Devices). The raw data in Softmax Pro 5.4.2 software was imported into Microsoft Excel for further analysis. Data are presented as absorbance values (450/650 nm) or the percentage of viable cells relative to vehicle-treated control (mean+1—standard deviation, n=3 biological replicates from one independent experiment).

The subject of the next data set is Huh-luc/neo-ET cells. As to the kind of experiment: XTT cell viability assay, Huh-luc/neo-ET. The data set is classed as cell-based. To be noted: XTT, 72 hours, read-out: HCV 1b - TC50. Here is the method: as §1, §2
Background: Tetrazolium assays rely on reduction of a dye to a coloured formazan, in cell work by metabolically active cells.

In data set [3] the test system is SARS-CoV-2 Alpha (B.1.1.7). In words: SARS-CoV-2 IF assay, HeLa-ACE2 (Method 1). It is filed as cell-based. To be noted: 2% FBS.
Another data set deals with Vero 76 cells. To be noted: with CPE assays (SARS-CoV-2 WA1, Delta), not converted for FBS.
The nature of data set [4]: Cytotoxicity, MTT assay in uninfected A549. The data set is classed as cell-based. Conditions: human, uninfected A549 cells, with Influenza A IF assay, not converted.
Data set [5] is described as follows: Cytotoxicity, neutral red dye-uptake, HG23. It is filed as cell-based. Conditions: human, HG23 cells, with Norwalk Virus CPE assay, not converted. The method, then: (§3) Compounds were tested in an assay medium containing 2% fetal bovine serum (FBS). Test compounds were added to cells prior to infection with virus at a multiplicity of infection (MOI) sufficient to induce visible cytopathic effect (CPE). […] Additionally, the EC90 was defined as the concentration required to achieve a 1 log10 reduction in viral titer. Dose-response curves depicting viral CPE (red line) and compound cytotoxicity (purple line) were generated to support these analyses.

The next data set in a line: Cytotoxicity, XTT, MRC-5. Conditions: human.
Data set [6] in a line: in vitro. Conditions: human.
For data set [7], the system named is SARS-CoV-2 Delta (B.1.617.2). In words: SARS-CoV-2 CPE assay, Vero 76 (Method 2). The data set is classed as cell-based. To be noted: Severe acute respiratory syndrome coronavirus 2, 2% FBS.
Data set [8] is described as follows: in vitro. Conditions: dog, CC50 (μM), MDCK; with Influenza B CPE assays.
A further data set deals with Norwalk Virus. In words: Norwalk virus CPE assay, HG23 (Method 6). Conditions: Norovirus Norwalk Virus, 2% FBS, @ 5 μM. The data set is classed as cell-based. The method, then:
as §3

The subject of another data set is SARS-CoV-2 USA-WA1/2020. As to the kind of experiment: SARS-CoV-2 CPE assay, A549-ACE2 (Method 2). The data set is classed as cell-based. Conditions: 2% FBS.

Molecules are shown by their SMILES.

`Cc1c(-c2ccc(O)cc2)n(Cc2ccc(OCCN3CCCCC3)cc2)c2ccc(O)cc12` [Pipendoxifene]: the concentration giving a half-maximal response (EC50) (in general, the midpoint of the concentration-response curve) with CoV229E is 0.11 to 0.52 µM; in data set [3] (SARS-CoV-2 Alpha (B.1.1.7)), 1.2 µM; in [3] (Severe acute respiratory syndrome coronavirus 2, HeLa-ACE2, SARS-CoV-2 Alpha (B.1.1.7)), 0.83 µM; in data set [7], 2.4 µM; in the data set with SARS-CoV-2 USA-WA1/2020, 1.9 µM. In addition, the IC50 (usually the concentration that gives 50% inhibition) in data set [1] amounted to 0.00064 µM. For the same compound, the CC50 at 72 h in data set [2] is more than 10 µM. The CC50 in the data set with Huh-luc/neo-ET cells was more than 10 µM; in the data set with Vero 76 cells, 3.2 µM; in data set [5], 18 µM; in “in vitro [6]” it was 1 µM; in the data set “in vitro [8]” it was 9.8 µM. This compound gave a CC50 at 24 h in data set [4] of 13.7 µM. Besides, the CC50 at 6 days in “Cytotoxicity, XTT, MRC-5” was more than 1 µM. For the same compound, the “percent effect printed in column EC50 (μM)” value with Norwalk Virus was 31% @.

Source of the values: patent US20260124192A1, “COMPOUNDS, COMPOSITIONS, AND METHODS OF TREATING RNA VIRAL INFECTIONS” (priority 2024, published 2026).
